The source of these data is patent US20260232818A1, “PHARMACEUTICAL COMPOSITIONS COMPRISING PROTEIN COMPLEXES” (Onchilles Pharma, Inc., priority 2023, published 2026).

The subject of data set [1] is human ovarian cancer cells. The data set is described as follows: Selective cancer cell-killing in ovarian cancer patient samples, cancer cells. It is filed as cell-based. The note with it: 24 hours; Calcein-AM; FIG. 9B. An excerpt:
Evaluating selective cancer cell-killing in ovarian cancer patient samples. Cancer and non-cancer cells were isolated from primary tumors, intraperitoneal (IP) fluid, omental adipose tissue (common metastatic site), and blood from 6 ovarian cancer patients. The following cells were isolated and tested: cancer cells (digested tumor with depletion of fibroblasts, CD45+ cells, and […] cells), non-cancer immune cells (digested omental cells with depletion of neutrophils or CD45+ cells from tumor tissue), peripheral blood mononuclear cells (PBMCs; B cells, T cells, monocytes, and NK cells), fibroblasts (isolated from tumor samples using fibroblast isolation kit), and IP cells (composed of >90% CD45+ immune cells, including B, T, myeloid, NK cells). Isolated cells were plated and exposed to A2M:MutF, doxorubicin (standard of care chemotherapy), or oxaliplatin (standard of care chemotherapy) for 24 hours. Cell viability was assessed by Calcein-AM.

Data set [2] in a line: Plasma Protection Assay (MutF activity on AAPV-AMC in plasma). The data set is classed as biochemical. The note with it: mouse plasma; MutF 400 nM; A2M:MutF 1:2; FIG. 3C. The protocol: Plasma Protection Assay. MutF (400 nM) was mixed with 200 nM A2M to reach a 1:2 molar ratio (A2M:MutF), followed by 30 minutes incubation at 37° C. in PBS. A plasma protection assay was performed in 384-black well-coated plate by adding 10 μL of sample with either 10 μL of PBS or 10 μL of mouse plasma samples in duplicates. 20 μL of the substrate AAPV-AMC at a concentration of 100 μM was added. Kinetics were measured on Varioskan LUX: 380 nm ex/460 nm (5 nm bandwidth), 37° C., top, 100 msec, 2 min for 16 reads. Vo was calculated as activity measurement.

Another data set concerns the target T1, Human fibrinogen (Homo sapiens, UniProt P02671+P02675+P02679).
T1 construct: purchased Sigma
T1 sequence (P02671 20-629 limits assumed): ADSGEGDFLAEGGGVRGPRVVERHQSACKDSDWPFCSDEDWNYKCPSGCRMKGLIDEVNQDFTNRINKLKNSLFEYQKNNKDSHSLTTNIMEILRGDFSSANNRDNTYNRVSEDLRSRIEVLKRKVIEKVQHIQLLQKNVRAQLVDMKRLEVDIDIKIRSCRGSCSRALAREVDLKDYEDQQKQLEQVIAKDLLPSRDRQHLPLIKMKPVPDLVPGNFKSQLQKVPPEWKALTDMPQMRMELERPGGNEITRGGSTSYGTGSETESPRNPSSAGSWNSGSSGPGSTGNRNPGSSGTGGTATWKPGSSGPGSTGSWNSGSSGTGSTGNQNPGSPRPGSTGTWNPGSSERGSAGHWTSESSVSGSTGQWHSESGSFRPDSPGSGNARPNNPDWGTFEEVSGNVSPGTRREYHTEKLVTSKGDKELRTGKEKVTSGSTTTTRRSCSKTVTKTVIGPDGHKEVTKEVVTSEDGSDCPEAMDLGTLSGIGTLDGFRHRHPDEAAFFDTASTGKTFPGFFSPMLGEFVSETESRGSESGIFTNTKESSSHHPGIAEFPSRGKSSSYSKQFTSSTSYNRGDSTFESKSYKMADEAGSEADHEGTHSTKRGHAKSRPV
T1 sequence (P02675 31-491): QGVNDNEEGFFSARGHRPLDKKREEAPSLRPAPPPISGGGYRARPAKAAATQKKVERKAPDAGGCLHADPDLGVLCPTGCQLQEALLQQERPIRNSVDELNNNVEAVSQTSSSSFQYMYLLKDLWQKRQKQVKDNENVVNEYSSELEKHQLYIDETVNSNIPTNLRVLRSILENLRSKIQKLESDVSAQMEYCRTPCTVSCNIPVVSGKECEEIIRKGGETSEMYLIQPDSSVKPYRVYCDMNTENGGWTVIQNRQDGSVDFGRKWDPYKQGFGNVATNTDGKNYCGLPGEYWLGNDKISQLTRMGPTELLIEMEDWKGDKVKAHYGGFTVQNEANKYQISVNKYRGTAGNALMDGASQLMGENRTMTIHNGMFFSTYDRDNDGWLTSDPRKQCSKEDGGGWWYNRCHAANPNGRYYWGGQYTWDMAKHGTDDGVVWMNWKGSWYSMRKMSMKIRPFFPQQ
T1 sequence (P02679 27-453): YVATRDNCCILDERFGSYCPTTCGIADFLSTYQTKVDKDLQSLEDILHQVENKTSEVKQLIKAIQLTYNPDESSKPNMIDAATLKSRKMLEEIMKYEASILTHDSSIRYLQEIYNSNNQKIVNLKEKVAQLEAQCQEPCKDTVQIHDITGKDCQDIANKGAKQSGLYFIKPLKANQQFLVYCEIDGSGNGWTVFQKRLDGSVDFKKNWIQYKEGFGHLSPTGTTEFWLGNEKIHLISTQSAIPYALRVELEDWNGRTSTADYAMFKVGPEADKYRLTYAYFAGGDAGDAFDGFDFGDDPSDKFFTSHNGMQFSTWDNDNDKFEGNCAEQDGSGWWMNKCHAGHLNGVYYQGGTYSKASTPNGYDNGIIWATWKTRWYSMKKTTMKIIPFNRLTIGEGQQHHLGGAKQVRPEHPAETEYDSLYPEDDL
The data set is described as follows: Fibrinogen cleavage assay. The data set is classed as biochemical. The note with it: 1 hr at 37° C.; Western Blot; FIG. 6B. The procedure: Fibrinogen cleavage assay. MutF was mixed with different concentrations of A2M to reach various molar ratios, followed by a 30-minute incubation at 37° C. in PBS. Human fibrinogen (Sigma) was incubated with pre-mixed A2M:MutF protein complexes at different molar ratios for 1 hr at 37° C. Samples containing 5 ug of fibrinogen were loaded on 4-15% gel and fibrinogen was detected by Western Blot with an anti-fibrinogen (cell signaling Technology). Gels were imaged by iBright 1500.

The subject of another data set is Elastin-F. The data set is described as follows: Elastin cleavage assay. It is filed as biochemical. The settings on record: overnight at 37° C.; FIG. 6C. The protocol: Elastin cleavage assay. MutF was mixed with different concentrations of A2M to reach various molar ratios, followed by a 30-minute incubation at 37° C. in PBS. Elastin-F (1:100) was incubated with pre-mixed A2M:MutF protein complexes overnight at 37° C., and the degraded fluorescent signal was measured in the supernatant.

Data set [3] is described as follows: Coagulation Assay (PT, PTT, fibrinogen in plasma after IV injection). It is filed as in vivo, Mice. The note with it: mouse plasma 5 min after IV injection of 480 ug. The protocol:
Coagulation Assay. Mice were injected with 200 μL of 480 ug of MutF or purified A2M:MutF protein complexes at a 1:2 molar ratio. Blood was collected in sodium citrate tubes and centrifuged at 1500×g for 15 minutes. 300 μl of plasma were frozen and shipped to IDEXX to be analyzed for Prothrombin time, Partial Thromboplastin time, and concentration of Fibrinogen.

As to `COc1cccc2c1C(=O)c1c(O)c3c(c(O)c1C2=O)C[C@@](O)(C(=O)CO)C[C@@H]3O[C@H]1C[C@H](N)[C@H](O)[C@H](C)O1` [doxorubicin, reference compound], the “Killing of cancer cells from chemo-naïve vs chemo-treated patients” value in data set [1] was “reduced killing of cancer cells isolated from chemo-treated relative to chemo-naïve patients”.
As for `O=C1[O][Pt]2([NH][C@@H]3CCCC[C@H]3[NH]2)[O]C1=O` [oxaliplatin, reference compound], the “Killing of cancer cells from chemo-naïve vs chemo-treated patients” value in data set [1] is given as “reduced killing of cancer cells isolated from chemo-treated relative to chemo-naïve patients”.
For the compound “MutF: porcine pancreatic elastase (PPE) protein 'Mutant F', Q211F, SEQ ID NO: 5”, the “MutF activity in plasma” value in data set [2] is reported as “plasma inhibits MutF activity”. Besides, in the data set with Human fibrinogen, the Fibrinogen cleavage result is given as “does cleave fibrinogen”. For the same compound, in the data set with Elastin-F, the “Elastin cleavage (fluorescent signal)” value is reported as “does cleave elastin”. The Prothrombin time entry in data set [3] (FIG. 7A) was “increases PT and PTT times”. Moreover, the “Partial Thromboplastin time” value in data set [3] (FIG. 7B) is “increases PT and PTT times”. Besides, in data set [3] (FIG. 7C), the “Concentration of fibrinogen in plasma” value was “causes reductions in fibrinogen levels”.
